Patent US6864246B2, “Anilide and cyclodextrin complexes, their preparation and their use as medicine in particular for treating dyslipidemiae” (Pierre Fabre Medicament, priority 2001, dated 2005)
Values after ≈ are worked out from the molar mass of the structure shown. Like-named read-outs stand apart in the source and are kept apart here.

Experiments:
[1] = physchem; settings: 25 °C, aqueous with cosolvent or surfactant or cyclodextrin, thermodynamic from solid
[2] = 1 h
[3] = Solubility at saturation of F12511 in solvents at 25° C.; type: physicochemical; settings: thermodynamic from solid
Protocol: By way of example, the table below gives some characteristic solubilities at saturation, at 25° C.: […]

[4] = 25° C.; cited from earlier work
[5] = Amount of F12511 solubilized in a solution of sodium lauryl sulfate at 5%

Row | solubility at 2 h ([1]; Amount of F12511 solubilized) | solubility at 5 min [1, 5] | solubility at 30 min [1, 5] | solubility at 1 h [1, 5] | solubility at 2 h [1, 5] | Amount of F12511 solubilized in a solution of sodium lauryl sulfate at 5% [2] | solubility ([3]; Macrogol 400, 25 °C, organic solvent or mixture, Macrogol 400, 25° C., read-out: Solubility at saturation) | solubility ([3]; corn oil, 25 °C, oil or lipid, Corn oil, 25° C., read-out: Solubility at saturation) | solubility ([3]; ethanol, 25 °C, organic solvent or mixture, Ethanol, 25° C., read-out: Solubility at saturation) | solubility ([3]; ethyl alcohol at 95%, 25 °C, organic solvent or mixture, ethyl alcohol at 95%, read-out: Solubility at saturation) | solubility ([3]; water, 25 °C, water, Water, 25° C., limit of analytical detection, read-out: Solubility at saturation) | solubility ([3]; water, 25 °C, water, water, limit of analytical detection, read-out: Solubility at saturation in water) | SMILES | Water-solubility [4]
1 | ~10 µg/mL (≈ 21.3 µM) | 1 µg/mL (≈ 2.13 µM) | 3 µg/mL (≈ 6.39 µM) | 5 µg/mL (≈ 10.6 µM) | 11 µg/mL (≈ 23.4 µM) | 5 µg/mL | 1000 µg/mL (≈ 2130 µM) | 300 µg/mL (≈ 639 µM) | 7000 µg/mL (≈ 14900 µM) | ≤ 2000 µg/mL | < 0.05 µg/mL | < 0.05 µg/mL | CCCCCCCCCCCCS[C@H](C(=O)Nc1cc(C)c(O)c(C)c1C)c1ccccc1 [Example F12511, (S)-2′,3′,5′-trimethyl-4′-hydroxy-α-dodecylthiophenylacetanilide] | –
2 | – | – | – | – | – | – | – | – | – | – | – | – | OC[C@H]1O[C@@H]2O[C@H]3[C@H](O)[C@@H](O)[C@@H](O[C@H]4[C@H](O)[C@@H](O)[C@@H](O[C@H]5[C@H](O)[C@@H](O)[C@@H](O[C@H]6[C@H](O)[C@@H](O)[C@@H](O[C@H]7[C@H](O)[C@@H](O)[C@@H](O[C@H]1[C@H](O)[C@H]2O)O[C@@H]7CO)O[C@@H]6CO)O[C@@H]5CO)O[C@@H]4CO)O[C@@H]3CO [α-cyclodextrin] | 14.2 g % ml,
